# In patent US8557812B2, “Small molecule inhibitors of anti-apoptotic BCL-2 family members and the uses thereof” (The Regents of the University of Michigan, priority 2004, dated 2013):
# Biological target: Bcl-2 (Homo sapiens, UniProt P10415)
# Test: Fluorescence polarization in vitro Bcl-2 binding assay
# Conditions: not given
# Procedure: Bcl-2 used in this assay is a recombinant His-fused soluble protein. […] Inc., Research Triangle Park, N.C.). […] The unlabeled Bid peptide is used as the positive control. The Ki values were calculated using our developed equation for FP assay (Nikolovska-Coleska et al., Anal. Biochem., 2004, in press). The program for calculating a Ki value is available free of charge via the Internet at http://sw16.im.med.umich.edu/software/calc_ki/.
# Chain of Bcl-2 (P10415 92-205 limits assumed): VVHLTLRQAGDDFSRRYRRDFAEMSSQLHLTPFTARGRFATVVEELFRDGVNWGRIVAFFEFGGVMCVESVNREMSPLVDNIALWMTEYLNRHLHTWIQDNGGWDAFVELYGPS
row,IC50,Compound
1,> 1000 nM,"CC(C)(C)c1ccc(CNC(=O)c2cc(CCc3ccccc3)c(O)c(O)c2O)cc1 [TW-25, N-(4-tert-Butyl-benzyl)-2,3,4-trihydroxy-5-phenethyl-benzamide]"
2,> 1000 nM,"CC(C)c1ccccc1Cc1cc(C(=O)Nc2ccccc2Cl)c(O)c(O)c1O [TW-53, N-(2-Chloro-phenyl)-2,3,4-trihydroxy-5-(2-iso-propyl-benzyl)-benzamide]"
3,> 1000 nM,"CC(C)c1cccc(NC(=O)c2cc(CCc3ccccc3)c(O)c(O)c2O)c1 [TW-24, N-(3-isopropyl-phenyl)-2,3,4-trihydroxy-5-phenethyl-benzamide]"
4,> 1000 nM,O=C(Nc1cc(S(=O)(=O)c2ccc(Cl)cc2)ccc1Cl)c1cc(Cc2ccccc2)c(O)c(O)c1O [TW-17]
5,> 1000 nM,"CC(C)(C)c1ccc(CCc2cc(C(=O)Nc3cccc(S(=O)(=O)c4ccccc4)c3)c(O)c(O)c2O)cc1 [TW-22, N-(3-Benzenesulfonyl-phenyl)-5-[2-(4-tert-butyl-phenyl)-ethyl]-2,3,4-trihydroxy-benzamide]"
6,≤ 1000 nM,O=C(NCCc1ccccc1)c1ccc(C2=Cc3c(c(O)c(O)c(O)c3-c3ccc(-c4ccccc4)cc3)C2=O)cc1 [TW-166]
7,≤ 1000 nM,"CC(C)(C)c1ccc(CCc2cc(C(=O)Nc3ccc(S(=O)(=O)c4ccccc4C(C)(C)C)cc3)c(O)c(O)c2O)cc1 [TW-38, N-[(2-tert-Butyl-benzenesulfonyl)-phenyl]-2,3,4-trihydroxy-5-(4-tert-butyl-phenethyl)-benzamide]"
8,> 1000 nM,CC(C)(C)c1ccc(CCc2cc(O)c(O)c(C(=O)Nc3ccc(S(=O)(=O)N4CCN(c5ccccc5)CC4)cc3)c2)cc1 [TW-167]
9,> 1000 nM,Cc1ccccc1NC(=O)c1cc(CCc2ccccc2)c(O)c(O)c1O [TW-28]
10,> 1000 nM,"CC(C)(C)c1ccc(Cc2cc(C(=O)Nc3cc(S(=O)(=O)c4ccc(Cl)cc4)ccc3Cl)c(O)c(O)c2O)cc1 [TW-39, N-[2-Chloro-5-(4-chloro-benzenesulfonyl)-phenyl]-2,3,4-trihydroxy-5-(4-tert-butyl-benzyl)-benzamide]"
11,> 1000 nM,"CCCCCCCCCCc1ccc(-c2cc(C(C)C)c(O)c(O)c2O)cc1 [TW-5, 4′-Decyl-5-isopropyl-biphenyl-2,3,4-triol]"
12,≤ 1000 nM,CC(C)(C)c1ccc(CCc2cc(O)c(O)c(C(=O)Nc3ccc(S(=O)(=O)N4CCN(c5ncccn5)CC4)cc3)c2)cc1 [TW-169]
13,> 1000 nM,"Oc1c(Cc2ccccc2)cc(-c2ccc(CCCc3ccccc3)cc2)c(O)c1O [TW-11, 5-Benzyl-4′-(3-phenyl-propyl)-biphenyl-2,3,4-triol]"
14,> 1000 nM,O=C(Nc1ccc(Cl)c(Cl)c1)c1cc(CCc2ccccc2)c(O)c(O)c1O [TW-27]
15,> 1000 nM,O=C(Nc1ccccc1)c1cc(S(=O)(=O)Nc2ccccc2)cc(O)c1O [TW-162]
16,> 1000 nM,"CCCCCCCCCCc1ccc(-c2cc(Cc3ccccc3)c(O)c(O)c2O)cc1 [TW-2, 5-Benzyl-4′-decyl-biphenyl-2,3,4-triol]"
17,≤ 1000 nM,"O=C(Nc1cc(S(=O)(=O)c2ccc(Cl)cc2)ccc1Cl)c1ccc(O)c(O)c1O [TW-46, N-[2-Chloro-5-(4-chloro-benzenesulfonyl)-phenyl]-2,3,4-trihydroxy-benzamide]"
18,> 1000 nM,"CNC(=O)c1cc(Cc2ccccc2C(C)C)c(O)c(O)c1O [TW-55, N-Methyl-2,3,4-trihydroxy-5-(2-isopropyl-benzyl)-benzamide]"
19,> 1000 nM,CC(C)(C)c1ccc(CCc2cc(O)c(O)c(C(=O)Nc3ccc(S(=O)(=O)N4CCC(Cc5ccccc5)CC4)cc3)c2)cc1 [TW-170]
20,> 1000 nM,CC(C)(C)c1ccccc1S(=O)(=O)c1ccc(NC(=O)c2cc(S(=O)(=O)NCCc3ccccc3)cc(O)c2O)cc1 [TW-161]
21,> 1000 nM,"CC(C)(C)c1ccc(Cc2cc(C(=O)Nc3ccc(S(=O)(=O)c4ccccc4C(C)(C)C)cc3)c(O)c(O)c2O)cc1 [TW-41, N-[4-(2-tert-Butyl-benzenesulfonyl)-phenyl]-2,3,4-trihydroxy-5-(4-tert-butyl-benzyl)-benzamide]"
22,> 1000 nM,"CCCCCCCCCCCc1ccc(-c2cc(CCc3ccc(C(C)(C)C)cc3)c(O)c(O)c2O)cc1 [TW-7, 5-[2-(4-tert-Butyl-phenyl)-ethyl]-4′-unedcyl-biphenyl-2,3,4-triol]"
23,> 1000 nM,"CC(C)c1cc(-c2ccc(C(C)(C)C)cc2)c(O)c(O)c1O [TW-4, 4′-tert-Butyl-5-isopropyl-biphenyl-2,3,4-triol]"
24,> 1000 nM,"O=C(Nc1cccc(S(=O)(=O)c2ccccc2)c1)c1cc(CCc2ccccc2)c(O)c(O)c1O [TW-21, N-(3-Benzenesulfonyl-phenyl)-2,3,4-trihydroxy-5-phenethyl-benzamide]"

row,IC50,Compound
1,> 1000 nM,"CC(C)c1ccccc1Cc1cc(C(=O)Nc2ccccc2)c(O)c(O)c1O [TW-52, N-Phenyl-2,3,4-trihydroxy-5-(2-iso-propyl-benzyl)-benzamide]"
2,> 1000 nM,"CC(C)c1ccccc1Cc1cc(C(=O)Nc2cc(S(=O)(=O)c3ccc(Cl)cc3)ccc2Cl)c(O)c(O)c1O [TW-35, N-[2-Chloro-5-(4-chloro-benzenesulfonyl)-phenyl]-2,3,4-trihydroxy-5-(2-isopropyl-benzyl)-benzamide]"
3,> 1000 nM,"O=C(Nc1ccc(S(=O)(=O)c2ccccc2)cc1)c1cc(Cc2ccccc2)c(O)c(O)c1O [TW-56, N-(Benzenesulfonyl-phenyl)-2,3,4-trihydroxy-5-benzyl-benzamide]"
4,> 1000 nM,O=C(Nc1ccc(S(=O)(=O)N2CCN(c3ccccc3)CC2)cc1)c1cc(S(=O)(=O)N2CCc3ccccc3C2)cc(O)c1O [TW-163]
5,> 1000 nM,"Oc1c(Cc2ccccc2)cc(-c2ccc(CCCCCc3ccccc3)cc2)c(O)c1O [TW-1, 5-Benzyl-4′-(5-phenyl-pentyl)-biphenyl-2,3,4-triol]"
6,≤ 1000 nM,CN(CCCc1ccccc1)S(=O)(=O)c1cc(C(=O)N2CCc3ccc(S(=O)(=O)NCCc4ccccc4)cc3C2)c(O)c(O)c1O [TM-1206]
7,≤ 1000 nM,O=C(Nc1ccc(S(=O)(=O)N2CCOCC2)cc1)c1cc(S(=O)(=O)N2CCc3ccccc3C2)cc(O)c1O [TW-164]
8,≤ 1000 nM,O=C1C(c2ccc(C(=O)N3CCC(Cc4ccccc4)CC3)cc2)=Cc2c1c(O)c(O)c(O)c2-c1ccc(-c2ccccc2)cc1 [TW-172]
9,> 1000 nM,"CCCCCCCCCCCc1ccc(-c2cc(Cc3ccc(C(C)C)cc3)c(O)c(O)c2O)cc1 [TW-9, 5-(4-Isopropyl-benzyl)-4′-undecyl-biphenyl-2,3,4-triol]"
10,> 1000 nM,"CCCCCCCCCCCc1ccc(-c2cc(Cc3ccc(C(C)(C)C)cc3)c(O)c(O)c2O)cc1 [TW-8, 5-(4-Tertbutyl-benzyl)-4′-undecyl-biphenyl-2,3,4-triol]"
11,> 1000 nM,"O=C(Nc1ccc(Oc2ccccc2)cc1)c1cc(CCc2ccccc2)c(O)c(O)c1O [TW-20, N-(4-phenyloxy-phenyl)-2,3,4-trihydroxy-5-phenethyl-benzamide]"
12,≤ 1000 nM,CC(C)(C)c1ccccc1S(=O)(=O)c1ccc(NC(=O)c2cc(S(=O)(=O)NCCCc3ccccc3)cc(O)c2O)cc1 [TW-159]
13,> 1000 nM,"CCCCCCCCCCCc1ccc(-c2cc(Cc3ccccc3C(C)C)c(O)c(O)c2O)cc1 [TW-14, 5-(2-Isopropyl-benzyl)-4′-undecyl-biphenyl-2,3,4-triol]"
14,≤ 1000 nM,COc1ccc(S(=O)(=O)Nc2ccccc2C(C)C)cc1NC(=O)c1cc(S(=O)(=O)N2CCc3ccccc3C2)cc(O)c1O [TW-165]
15,> 1000 nM,CC(C)(C)c1ccccc1S(=O)(=O)c1ccc(NC(=O)c2cc(S(=O)(=O)NCCCCc3ccccc3)cc(O)c2O)cc1 [TW-160]
16,> 1000 nM,CC(C)(C)c1ccccc1NC1CCN(S(=O)(=O)c2ccc(NC(=O)c3cc(S(=O)(=O)N4CCc5ccccc5C4)cc(O)c3O)cc2)CC1 [TW-174]
17,> 1000 nM,O=C(Nc1ccc(S(=O)(=O)N2CCC(Nc3ccccc3-c3ccccc3)CC2)cc1)c1cc(S(=O)(=O)N2CCc3ccccc3C2)cc(O)c1O [TW-173]
18,≤ 1000 nM,"CCc1cc(C(=O)Nc2cc(S(=O)(=O)c3ccc(Cl)cc3)ccc2Cl)c(O)c(O)c1O [TW-45, N-[2-Chloro-5-(4-chloro-benzenesulfonyl)-phenyl]-2,3,4-trihydroxy-5-ethyl-benzamide]"
19,> 1000 nM,"CC(C)CCCc1ccccc1Cc1cc(C(=O)Nc2ccc(S(=O)(=O)c3ccccc3C(C)(C)C)cc2)c(O)c(O)c1O [TW-42, N-[4-(2-tert-Butyl-benzenesulfonyl)-phenyl]-2,3,4-trihydroxy-5-(2-iso-hexyl-benzyl)-benzamide]"
20,> 1000 nM,"O=C(Nc1cc(S(=O)(=O)c2ccc(Cl)cc2)ccc1Cl)c1cc(CCc2ccccc2)cc(O)c1O [TW-34, N-[2-Chloro-5-(4-chloro-benzenesulfonyl)-phenyl]-2,3-dihydroxyl-phenethyl-benzamide]"
21,> 1000 nM,"CCCCCCCCCCCc1ccc(-c2cc(CCCc3ccccc3)c(O)c(O)c2O)cc1 [TW-6, 5-(3-Phenyl-propyl)-4′-undecyl-biphenyl-2,3,4-triol]"
22,> 1000 nM,"CC(C)(C)c1ccc(-c2cc(Cc3ccccc3)c(O)c(O)c2O)cc1 [TW-3, 5-Benzyl-4′-tert-butyl-biphenyl-2,3,4-triol]"
23,≤ 1000 nM,"CC(C)CCCc1cc(C(=O)Nc2cc(S(=O)(=O)c3ccc(Cl)cc3)ccc2Cl)c(O)c(O)c1O [TW-47, N-[2-Chloro-5-(4-chloro-benzenesulfonyl)-phenyl]-2,3,4-trihydroxy-5-iso-hexyl-benzamide]"
24,> 1000 nM,"Oc1c(Cc2ccccc2)cc(-c2ccc(Cc3ccccc3)cc2)c(O)c1O [TW-12, 5,4′-Dibenzyl-biphenyl-2,3,4-triol]"

# Biological target: human Bcl-xL (Homo sapiens, UniProt Q07817)
# Test: Fluorescence polarization in vitro Bcl-xL binding assay
# Conditions: displacement of Flu-Bak peptide
# Source text: For determination of the binding affinity to Bcl-xL protein a human Bcl-xL recombinant His-tagged protein without the C-terminus hydrophobic tail and the Bak-16mer BH3 peptide labeled with 6-carboxyfluorescein succinimidyl ester (FAM) were used.
# Chain of human Bcl-xL (Q07817 1-209 limits assumed): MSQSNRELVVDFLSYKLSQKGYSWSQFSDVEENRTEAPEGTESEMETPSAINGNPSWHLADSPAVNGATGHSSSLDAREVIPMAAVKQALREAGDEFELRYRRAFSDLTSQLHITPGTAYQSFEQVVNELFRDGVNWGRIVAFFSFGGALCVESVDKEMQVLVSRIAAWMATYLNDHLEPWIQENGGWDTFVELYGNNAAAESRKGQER
row,IC50,Compound
1,> 1000 nM,O=C(c1ccc(Oc2ccc(S(=O)(=O)N3CCCCC3)c(Cl)c2)cc1)c1cc(C(=O)c2nc3ccccc3s2)c(O)c(O)c1O [TM-180]
2,> 1000 nM,Oc1c(CCCc2ccccc2)cc(Cc2ccc(Oc3ccccc3)cc2)c(O)c1O [TM-163]
3,> 1000 nM,Oc1c(CCc2ccccc2)cc(Cc2ccc(Oc3ccccc3)cc2)c(O)c1O [TM-162]
